Data set [1] has as its system MuSCs isolated from skeletal muscle of Dmd^mdx mice. The data set can be described thus: Ex vivo culture of MuSCs from Dmd^mdx mice: PAX7 expression, myocolony size, fusion index. Type of data set: cell-based. The method, then: (§1) Moreover, cells and single EDL myofibres were cultured in 39% Dulbecco's modified eagle medium (DMEM), 39% F12, 20% fetal calf serum (FCS) (Life Technologies), 2% UltroserG™ (Pall Life Sciences). C2C12 myoblasts were cultured in DMEM supplemented with 20% FCS. When indicated, culture conditions were supplemented with 0.1% dimethylsulfoxide (DMSO control, Sigma), 10 μM sal003 (Sigma), or 0.1-0.2 μM C15.
PAX7 expression marks MuSCs that retained stem cell properties to regenerate muscle. Under normal culture conditions, PAX7-expression is down regulated as MuSCs differentiate and lose their stem cell properties to regenerate muscle. […] Conceptually, these ex vivo results support a model by which pharmacological interventions that promote MuSC expansion (FIG. 10A, FIG. 10B, and FIG. 11) in the short term will lead to improved muscle mass and strength in the long term.
(§2) Immunoassays were also performed to further confirm the effect of C15 on the dephosphorylation of elF2α. For immunofluorescence, cultured satellite cells were fixed in 4% paraformaldehyde (PFA), permeabilized with 0.2% Triton™, 50 mM NH4Cl and blocked in 5% horse serum (HS). Single EDL myofibers were fixed with 4% PFA, permeabilized with 0.1% Triton™ in PBS and blocked in 5% horse serum (HS) with 0.1% Triton™ in PBS. TA muscles were fixed for 2 hr in 0.5% PFA at 4° C. and equilibrated overnight in 20% sucrose at 4° C. Tissues were mounted in Frozen Section Compound (VWR) and flash frozen in a liquid nitrogen-cooled isopentane bath. Transverse sections (10 μm) were permeabilized with 0.1% Triton™, 0.1M Glycine in PBS, and blocked in Mouse on Mouse (M.O.M.) reagent (Vector Labs).

Data set [2] has as its system P-elF2α dependent read-through of Atf4 uORFs (Atf4-fluc reporter) in HEK293 cells. Kind of data set: Atf4-luciferase reporter (Fluc/Rluc ratio) in transfected HEK293 cells. Type of data set: cell-based. The text has this: The Atf4- and Tacc3-luciferase constructs were made by cloning gBlock gene fragments (Integrated DNA Technologies) corresponding to 5′UTRs of Mus musculus Atf4 and Tacc3, fused to the 5′end of the fluc gene up to the Narl restriction enzyme site. Mutant versions of Atf4 and Tacc3 5′UTRs were designed with each ATG start codon of uORFs deleted. These 5′UTR gene fragments were cloned into Hindlll, Narl sites upstream of the firefly luciferase (fluc) gene in pGL3-promoter plasmids, thereby maintaining the final overlapping uORF with the main ORF for fluc (Promega™). FIG. 5A and FIG. 5B show a schematic of the formation of a pre-initiation complex that includes many factors including the a subunit (elF2α) that is dephosphorylated (FIG. 5A) or phosphorylated (FIG. 5B). The pre-initiation complex associates with the uORFs, where, if phosphorylated, translation initiation of the uORFs occurs upstream of Atf4 and continues to translate Atf4. However, if elF2α is dephosphorylated (FIG. 5A), no translation initiation occurs for Atf4 as the pre-initiation complex dissociates from the uORFs.
HEK293 cells were plated in 24-well plates at a density of 25,000 cells/well and incubated overnight. […] The cells were then lysed and the Fluc/Rluc ratio was determined using the Promega™ Dual-Luciferase Reporter kit (Madison, USA). […]
For orientation: Reporter assays use an easily measured gene product as a stand-in for the process of interest.

The subject of data set [3] is PAX7-expressing muscle stem cells (MuSCs). The data set can be described thus: DDX6-positive RNA granules in PAX7-expressing MuSCs, ex vivo culture, immunofluorescence. Type of data set: cell-based, mice. The protocol: as §1
P-elF2α is required for the assembly of DDX6-positive(+) RNA granules in quiescent and self-renewing satellite cells. Activated muscle stem cells (MuSCs) dephosphorylate elF2α, RNA granules disassemble, and the myogenic program is activated.
as §2, with “Transverse sections (10 μm) were permeabilized with 0.1% Triton™, 0.1M Glycine in PBS, and blocked in Mouse on Mouse (M.O.M.) reagent (Vector Labs).” left out

Data set [4] deals with elF2α phosphorylation in C2C12 cells. The data set can be described thus: Immunoblot of P-elF2α and total elF2α in C2C12 cell lysates. Type of data set: cell-based. The method, then: as §1
For immunoblotting, cell lysates were obtained in RIPA buffer (ThermoFischer Scientific) supplemented with complete protease inhibitor cocktail (Roche) and phosphatase inhibitor cocktail (Sigma). The primary antibodies used were against PAX7 (DHSB), LAMININ (Sigma L9393), MYOG (Abcam 124800 and Santacruz sc-12732), and β-ACTIN (Sigma A5441). Alexa™ Fluor-488, Alexa™ Fluor-594 and Alexa™ Fluor-647 conjugated secondary anti-mouse IgG1, anti-mouse IgG2B or anti-rabbit antibodies (Life technologies) were used for immunofluorescence. Horseradish peroxidase (HRP) conjugated anti-mouse or anti-rabbit secondary antibodies (Jackson Immunoresearch) were used with the ECL™ Prime Western Blotting Detection reagents (GE Healthcare). Densitometry of immunoblots was performed with ImageJ™.
To determine the effect of C15 on elF2α phosphorylation, C2C12 cell lysates cultured for twelve hours in the presence of sal003 (10 μM) or C15 (0.1 μM and 0.2 μM) were immunoblotted.
For orientation: A western blot detects proteins with antibodies after separation by electrophoresis.

For another data set, the system named is Dmd^mdx mice. Kind of data set: In vivo administration by osmotic pump in Dmd^mdx mouse model of Duchenne muscular dystrophy. The protocol:
FIG. 20 is a schematic diagram of in vivo administration of C15 by an osmotic pump in the Dmd^mdx mouse model of Duchenne muscular dystrophy, specifically Alzet™ 2001 osmotic pumps were used to deliver 2.5 mg/kg/day of C15 with a vehicle containing 50:50 DMSO:[…] at a flow rate of 0.5 μL/hr by a subcutaneous implantation of the Alzet™ 2001 osmotic pumps into Dmd^mdx mouse, and 14 days later muscle was harvested for quantification by fluorescence of the myofibre CSA (red) and PAX7(+) (green) satellite cell compartment.
In this example, the effect of C15 on the dephosphorylated levels of elF2α was studied. Animal care practices were performed in accordance with the federal Canadian Council on Animal Care, as practiced by McGill University. All mice were maintained on a C57/BI6 background. Dmd^mdx mice, aged 8-10 weeks, were implanted (sub-cutaneously) with osmotic pumps (Alzet™) to deliver C15 at a rate of 2.5 mg/kg/day. C15 was dissolved in a 50:50 solution of DMSO:PEG400. At indicated time points, muscle was harvested for analysis by immunofluorescence.
as §2

The next data set has as its system satellite cells. Kind of data set: Ex vivo expansion of cultured cells. It is filed as cell-based. The settings on record: sal003 concentrations lower than 10 μM. The protocol: Moreover, cells and single EDL myofibres were cultured in 39% Dulbecco's modified eagle medium (DMEM), 39% F12, 20% fetal calf serum (FCS) (Life Technologies), 2% UltroserG™ (Pall Life Sciences). C2C12 myoblasts were cultured in DMEM supplemented with 20% FCS. […]

Regarding `CC(C)(C)c1ccc(NC(=S)NC(NC(=O)/C=C/c2ccccc2)C(Cl)(Cl)Cl)cc1` (stereo not shown) [C15], in data set [1] (0.2 μM C15, 7 days (FIG. 14)), the “fusion index (number of nuclei per myotube)” value is listed as “larger fusion index”. The “PAX7 expression of Dmd^mdx MuSCs” value in data set [1] (0.2 μM C15, cultured 3 days (FIG. 10, 11)) is given as “maintain PAX7 expression”. For the same compound, the myocolony size result in data set [1] (0.2 μM C15, long periods of time (7 days; FIG. 12, 13)) is recorded as “larger myocolonies”. For the same compound, the “P-elF2α activity to enable read-through of uORFs after incubation at 37° C. (stability)” value in data set [2] (C15 10 μM, incubated at 37° C. for 0-3 weeks, HEK293 cells (FIG. 19)) is on record as “maintained”. In data set [2] (HEK293 cells, overnight, 10 μM, compared with sal003, C10 and DMSO (FIG. 6)), the “luciferase activity (Atf4-fluc reporter)” value is “significantly increases luciferase activity, higher than sal003 and C10”. The “DDX6(+) RNA granules in PAX7-expressing MuSCs, culture of isolated MuSCs” value in data set [3] (0.2 μM C15, 4-day culture (FIG. 9)) is on record as “maintained”. Also, in data set [3] (0.2 μM C15, after 6 h (FIG. 7, 8)), the “DDX6(+) RNA granules in PAX7-expressing MuSCs, culture of single myofibres” value was “maintained”. In addition, the “P-elF2α levels (P-elF2α : total elF2α)” value in data set [4] (C2C12 cells, 12 hours, C15 0.1 to 0.2 μM vs sal003 10 μM (FIG. 15, 16)) is recorded as “increased the P-elF2α levels to a level equivalent to 10 μM sal003”. Besides, the “activity of increasing P-elF2α levels after incubation at 37° C. (stability)” value in data set [4] (C15 10 μM, incubated at 37° C. for 0-3 weeks, C2C12 cells (FIG. 17, 18)) is listed as “maintained the activity of increasing P-elF2α levels”. The “MuSC associated RNA granules (EDL myofibres)” value in the data set with Dmd^mdx mice (2.5 mg/kg/day C15, osmotic pump s.c., two weeks (FIG. 21)) is listed as “maintenance of MuSC associated RNA granules”. Besides, in the data set on Dmd^mdx mice (2.5 mg/kg/day C15, two weeks), the “myofiber cross sectional area of treated muscle” value is recorded as “increased” and the “numbers of central nucleated myofibres” value is recorded as “decreased”. Moreover, the “numbers of PAX7-expressing MuSCs on single EDL myofibres” value in the data set on Dmd^mdx mice (2.5 mg/kg/day C15, two weeks (FIG. 23)) is recorded as “increased numbers”. In the data set on Dmd^mdx mice (2.5 mg/kg/day C15, two weeks (FIG. 24)), the “numbers of PAX7-expressing MuSCs on transverse sections of tibialis anterior (TA)” value is recorded as “increased numbers”. The “numbers of PAX7-expressing MuSCs on transverse sections of diaphragm” value with Dmd^mdx mice (2.5 mg/kg/day C15, two weeks (FIG. 25)) is recorded as “increased numbers”.

For `O=C(/C=C/c1ccccc1)NC(NC(=S)Nc1ccc(Cl)cc1)C(Cl)(Cl)Cl` (stereo not shown) [sal003], in the data set with satellite cells, the “ex vivo expansion of cells” value is “not possible to expand the cells ex vivo at sal003 concentrations lower than 10 μM”.

The values are drawn from patent US12497358B2, “Inhibitor of EIF2α dephosphorylation” (THE ROYAL INSTITUTION FOR THE ADVANCEMENT OF …, priority 2021, dated 2025).
